According to patent publication US20210214421A1 (priority 2018, published 2021):

Assays:
Assay in all cases: microbe, parasite or virus in culture
Format in all cases: cell-based
[1] = tested on: Staphylococcus pseudintermedius strain 23929; conditions: Staphylococcus pseudintermedius, 23929, 24 h, read-out: minimal inhibiting concentration (breakthrough point)
[2] = tested on: Staphylococcus pseudintermedius strain HH15; conditions: HH15, 24 h, read-out: minimal inhibiting concentration (breakthrough point)
[3] = tested on: Staphylococcus pseudintermedius strain 69687; conditions: Staphylococcus pseudintermedius, 69687, 24 h, read-out: minimal inhibiting concentration (breakthrough point)
[4] = tested on: Staphylococcus pseudintermedius strain GL151A; conditions: 24 h, read-out: minimal inhibiting concentration (breakthrough point)

Measured: MIC

CCC[C@@H]1C[C@@H](C(=O)N[C@@H]([C@H]2O[C@H](SC)[C@H](O)[C@@H](O)[C@H]2O)[C@H](C)Cl)N(C)C1 [clindamycin]
625 µg/mL: all assays above
